Reference: US9932300B2, “N,N′-diarylurea compounds and N,N′-diarylthiourea compounds as inhibitors of translation initiation” (President and Fellows of Harvard College, priority 2009, dated 2018)
Entries after “also recorded” stand apart in the source; their conditions may differ. One block for each compound: values may come before it.

Tests used:
[1] = Solubility in solvents during purification; type: physicochemical; conditions: crude product
Method: Because it could not be purified, this compound was removed from the structure-activity relationship (SAR) study.
As another non-limiting example, 3,4-dichlorophenylisocyanate (250 mg, 1.330 mmol) and 2-amino-4-hydroxy-6-methylpyrimidine (166 mg, 1.330 mmol) were used following the general procedure E to synthesize 28.

[2] = test system: eIF2-GTP-Met-tRNAi ternary complex; assay: Ternary complex / ATF-4 dual luciferase assay in human cancer cell lines co-transfected with tTA and pBISA-DL(ATF-4) (CRL-2351, PC-3, CRL-2813); type: cell-based; conditions: CRL-2351 cell line
Method: FIGS. 8A-8D depict that N,N′-diarylureas reduce the availability of the eIF2-GTP-Met-tRNAi ternary complex in human cancer cells. A-C) PC-3, CR-L2351, and CRL-2813 human cancer cell lines were co-transfected with pBISA-DL^(ATF-4) and ptTA plasmids. One day post-transfection, the cells were treated with the indicated concentrations of N,N′-diarylureas. Firefly/renilla ratio was determined by DLR assay 8 hours after treatment. D) PC-3, CR-L2351, and CRL-2813 human cancer cell lines were treated with the indicated concentrations of N,N′-diarylureas four 8 hours, and expression of endogenous CHOP mRNA was determined by real-time PCR.
(§1) For example, reducing amount of the ternary complex increases translation of ATF-4, which results in elevated expression of CHOP mRNA and protein. Therefore, expression of endogenous CHOP mRNA and CHOP protein in KLN-tTA/pBISA-DL^(ATF-4) cells were utilized as secondary assays to validate N,N′-diarylurea compounds as modifiers of the eIF2⋅GTP⋅Met-tRNAi ternary complex. […] To rule out the possibility that the activity of N,N′-diarylurea compounds was confined to a single cell type, the effects of these compounds on the ternary complex assay and the expression of CHOP mRNA was assayed in CRL-2351, PC-3, CRL-2813 human breast, prostate, and melanoma cancer cell lines respectively. For the reporter gene assay, the three human cell lines were co-transfected with tTA expression vector and the pBISA-DL^(ATF-4) dual luciferase expression vector shown in FIG. 6. […] The expression of CHOP mRNA was assayed by real time PCR in the same cell lines treated with 5 or 20 μM of each compound. […]
Stable and transient transfection: Cells were seeded at the density of 10^5 in 60-mm (stable transfection) or 10^4 cells per well of 96-well plate (transient transfection) plates and transfected one day later using the Qiagen Transfectamine transfection kit. For selection of stable cell lines, transfected cells were transferred to 100-mm plates and selected with appropriate antibiotics.
Dual luciferase assay: Cells or minced tumors expressing firefly and renilla luciferases were lysed and the extracts assayed with a glow type dual luciferase assay kit, per manufacturer's instruction (Promega Inc., Madison, Wis.).

[3] = test system: eIF2-GTP-Met-tRNAi ternary complex; assay: Ternary complex assay (dual luciferase, firefly/renilla ratio) in stable KLN-tTA/pBISA-DL(ATF-4) cells; HTS and hit confirmation; type: cell-based, mouse; conditions: designation in figure legend
[4] = test system: PC-3 human prostate cancer cells; assay: Cell proliferation, SRB assay, PC-3; type: cell-based; conditions: read-out: IC50 (concentration that inhibits cell proliferation by 50%)
Method: Reduced availability of the ternary complex causes inhibition of translation initiation and thereby of cell proliferation. […] The effects of N,N′-diarlyureas on the proliferation KLN mouse squamous cell carcinoma, CRL-2351 human breast, CRL-2813 human melanoma, A549 human lung and PC-3 human prostate cancer cell lines were tested.
To determine if N,N′-diarylureas inhibit cell proliferation by reducing the availability of the ternary complex, the effect of N,N′-diarylureas on proliferation of previously described transgenic PC-3 human prostate cancer cell lines expressing either the non-phosphorylatable eIF2α-S51A mutant or the eIF2α-WT was studied. […] Reducing the expression of HRI, the eIF2α kinase that mediates N,N′-diarlyurea induced phosphorylation of eIF2α similarly abrogates the effect of these agents on cell proliferation (FIGS. 15C and 15D).
Cell Growth Assay: Cell growth was measured by the SRB assay.

[5] = test system: eIF2-GTP-Met-tRNAi ternary complex; assay: Ternary complex assay (dual luciferase, firefly/renilla ratio) in stable KLN-tTA/pBISA-DL(ATF-4) cells; HTS and hit confirmation; type: cell-based, mouse; conditions: for Induction of F-luc/R-luc ratio after knockdown of HRI: siRNA against HRI
HRI = assay: Activation of HRI in cell-free lysates (phosphorylation of eIF2α, Western blot); type: biochemical, rabbit and human; conditions: lysates of CRL-2813 cells or heme-supplemented rabbit reticulocytes, 30 minutes at 37° C.
Method: FIGS. 14A and 14B depict that N,N′-diarylurea compounds activate HRI in cell free lysates. A and B) Heme supplemented rabbit reticulocyte (a) or in-house prepared human melanoma cancer cell lysates (b) were incubated with the indicated concentration of compound 1781 for 30 minutes at 37° C. and phosphorylation of eIF2α was determined by Western blot analysis.
Compound #1781 was added to lysates of CRL-2813 cells or heme-supplemented rabbit reticulocytes and phosphorylation of eIF2α by Western blot was determined.

CHOP = assay: Expression of endogenous CHOP mRNA (real time PCR) and CHOP protein (Western blot); type: cell-based, mouse and human; conditions: siRNA against HRI
Excerpt: as §1
Real time PCR: For real time PCR, total RNA was extracted with TaqMan Gene Expression Cells-to-Ct™ Kit (Applied Biosystems, Branchburg, N.J.) according to manufacturer's protocol. […] To calibrate the results, all the transcripts quantities were normalized to 18S rRNA (was 18S ribosomal RNA-like mRNA in mouse). […]

[6] = In vivo toxicity in female nude mice (body weight, food consumption, necropsy)
Method: Five female nude mice each were treated with 200 mg/kg, 100 mg/kg #1781 in 15 μl DMSO or 15 μl DMSO daily for seven days. Mice were observed daily for signs of toxicity and weighed every other day for total of 15 days and then necropsy was performed. The average body of each group is plotted against the time.
To study toxicity effects, mice were treated with various doses of compound #1781 or vehicle.

SMILES: O=C(Nc1cc(C(F)(F)F)cc(C(F)(F)F)c1)Nc1ncccc1O [Compound 28]
Solubility in solvents [1]: not soluble in any solvent; also recorded: wasn't soluble in any solvent tested | ATF-4 Cmax (concentration corresponding to the maximal activity) [2]: 40 µM

IC50 [4]: 8.3 µM
SMILES: O=C(Nc1ccc(Cl)c(Cl)c1)Nc1cc([N+](=O)[O-])ccc1Cl [Compound 1527]
Active or inactive N,N′-diarylurea (ternary complex assay) [3]: inactive

SMILES: O=C(Nc1ccc(Cl)c(Cl)c1)Nc1ccc2nnsc2c1 [Compound 1781]
Induction of F-luc/R-luc ratio after knockdown of HRI [5]: significantly abrogated | Induction of F-luc/R-luc ratio after knockdown of HRI ([5]; listed as 1181): almost completely abrogated | Induction of F-luc/R-luc ratio after knockdown of PKR, PERK or GCN2 ([5]; siRNA against PKR, PERK, GCN2, individually or combined): no effect | Phosphorylation of eIF2α in cell lysates (HRI): caused phosphorylation of eIF2α in cell lysates in a dose dependent manner | Induction of CHOP mRNA after knockdown of HRI (CHOP): abrogated induction of CHOP mRNA | Apparent in vivo toxicity ([6]; 200 mg/kg or 100 mg/kg daily for seven days, female nude mice, observed 15 days): no apparent in vivo toxicity | Effect on weight gain or food consumption ([6]; seven consecutive day administration, up to 200 mg/kg, mice): no adverse effect on weight gain or food consumption
